Tests used:
Prothrombin = Prothrombin (Homo sapiens, UniProt P00734); assay: Tested for the binding affinity against thrombin
Coagulation factor X = Coagulation factor X (Homo sapiens, UniProt P00742); assay: Tested for selectivity against Coagulation factor X
Serine protease 1 = Serine protease 1 (Homo sapiens, UniProt P07477); assay: Tested for selectivity against trypsin
Serine protease 1, sequence (P07477 whole entry): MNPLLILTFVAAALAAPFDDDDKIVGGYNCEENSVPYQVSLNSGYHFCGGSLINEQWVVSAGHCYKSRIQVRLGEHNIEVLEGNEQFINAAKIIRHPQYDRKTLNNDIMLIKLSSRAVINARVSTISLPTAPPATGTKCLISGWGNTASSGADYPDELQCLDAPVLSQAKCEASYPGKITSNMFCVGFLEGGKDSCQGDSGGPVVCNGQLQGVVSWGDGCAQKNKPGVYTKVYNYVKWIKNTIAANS

Coagulation factor X, sequence (P00742 41-179 limits assumed): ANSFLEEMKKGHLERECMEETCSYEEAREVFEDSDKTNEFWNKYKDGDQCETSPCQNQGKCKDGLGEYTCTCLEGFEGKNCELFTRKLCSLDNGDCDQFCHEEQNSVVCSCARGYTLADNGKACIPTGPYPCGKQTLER
Coagulation factor X, sequence (P00742 235-488 limits assumed): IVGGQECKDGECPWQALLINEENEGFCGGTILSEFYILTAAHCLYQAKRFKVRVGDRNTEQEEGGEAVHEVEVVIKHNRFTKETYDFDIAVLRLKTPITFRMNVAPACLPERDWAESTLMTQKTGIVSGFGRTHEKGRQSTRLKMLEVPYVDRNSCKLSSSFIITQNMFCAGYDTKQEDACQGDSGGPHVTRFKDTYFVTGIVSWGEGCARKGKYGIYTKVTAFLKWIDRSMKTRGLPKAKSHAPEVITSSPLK

SMILES	Ki (Prothrombin) [nM]	Ki (Coagulation factor X) [nM]	Ki (Serine protease 1) [nM]
CC(=O)N[C@H](Cc1ccccc1)C(=O)N1CCC[C@H]1C(=O)N[C@@H](CCCn1ccnc1N)B1O[C@@H]2CC3CC(C3(C)C)[C@]2(C)O1 (stereo partly specified)	1.7	> 6000	20
CC(=O)N[C@H](Cc1ccccc1)C(=O)N1CCC[C@H]1C(=O)N[C@@H](CCCNc1cc(Cl)nc(N)n1)B1O[C@@H]2CC3CC(C3(C)C)[C@]2(C)O1 (stereo partly specified)	43	> 6000	> 1200
CC(=O)N[C@H](Cc1ccccc1)C(=O)N1CCC[C@H]1C(=O)N[C@@H](CCCNc1ccnc(N)n1)B1O[C@@H]2CC3CC(C3(C)C)[C@]2(C)O1 (stereo partly specified)	150	–	–
CCCCS(=O)(=O)N[C@H](Cc1ccccc1)C(=O)N1CCC[C@H]1C(=O)N[C@@H](CCCNc1cc(Cl)nc(N)n1)B1O[C@@H]2CC3CC(C3(C)C)[C@]2(C)O1 (stereo partly specified)	2.1	> 6000	214
CC(=O)N[C@H](Cc1ccccc1)C(=O)N1CCC[C@H]1C(=O)N[C@@H](CCCSc1ncccn1)B1O[C@@H]2CC3CC(C3(C)C)[C@]2(C)O1 (stereo partly specified)	2000	–	> 1200
CCCCS(=O)(=O)N[C@H](Cc1ccccc1)C(=O)N1CCC[C@H]1C(=O)N[C@@H](CCCSc1ncccn1)B1O[C@@H]2CC3CC(C3(C)C)[C@]2(C)O1 (stereo partly specified)	8.8	–	–
CCCCS(=O)(=O)N[C@H](Cc1ccccc1)C(=O)N1CCC[C@H]1C(=O)N[C@@H](CCCn1ccnc1N)B1O[C@@H]2CC3CC(C3(C)C)[C@]2(C)O1 (stereo partly specified)	3.2	970	40
CC(=O)N[C@H](Cc1ccccc1)C(=O)N1CCC[C@H]1C(=O)N[C@@H](CCCn1ncnc1[N+](=O)[O-])B1O[C@@H]2CC3CC(C3(C)C)[C@]2(C)O1 (stereo partly specified)	199	> 6000	> 1200
CC(=O)N[C@H](Cc1ccccc1)C(=O)N1CCC[C@H]1C(=O)N[C@@H](CCCn1ncnc1N)B1O[C@@H]2CC3CC(C3(C)C)[C@]2(C)O1 (stereo partly specified)	507	> 6000	> 1200
CC(=O)N[C@H](Cc1ccccc1)C(=O)N1CCC[C@H]1C(=O)N[C@@H](CCCn1ccnc1)B1O[C@@H]2CC3CC(C3(C)C)[C@]2(C)O1 (stereo partly specified)	67	6000	27
CCCCS(=O)(=O)N[C@H](Cc1ccccc1)C(=O)N1CCC[C@H]1C(=O)N[C@@H](CCCn1ccnc1[N+](=O)[O-])B1O[C@@H]2CC3CC(C3(C)C)[C@]2(C)O1 (stereo partly specified)	15	6000	> 1200
CC(=O)N[C@H](Cc1ccccc1)C(=O)N1CCC[C@H]1C(=O)N[C@@H](CCCn1ccnc1[N+](=O)[O-])B1O[C@@H]2CC3CC(C3(C)C)[C@]2(C)O1 (stereo partly specified)	650	> 6000	> 1200
CC(=O)N[C@H](Cc1ccccc1)C(=O)N1CCC[C@H]1C(=O)N[C@@H](CCCN=C(N)N)B(O)O	–	9	–
CC(=O)N[C@H](Cc1ccccc1)C(=O)N1CCC[C@H]1C(=O)N[C@@H](CCCn1nnnc1N)B1O[C@@H]2CC3CC(C3(C)C)[C@]2(C)O1 (stereo partly specified)	350	6000	> 1200
CC(=O)N[C@H](Cc1ccccc1)C(=O)N1CCC[C@H]1C(=O)N[C@@H](CCCNc1ncccn1)B1O[C@@H]2CC3CC(C3(C)C)[C@]2(C)O1 (stereo partly specified)	600	> 6000	> 1200
CC(=O)N[C@H](Cc1ccccc1)C(=O)N1CCC[C@H]1C(=O)N[C@@H](CCCNc1ccccn1)B1O[C@@H]2CC3CC(C3(C)C)[C@]2(C)O1 (stereo partly specified)	230	> 6000	> 1200
